We go through 22 molecules from PubChem BioAssay (NCI).

The structures appear in SMILES notation.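 The compound was tested at five concentrations on cells cultured in 96-well plates, with a 48-hour exposure period. Here, GI50 denotes the concentration required for 50% inhibition of growth. TGI: concentration producing complete growth inhibition.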

Experiment in all cases: growth of human tumour cells (NCI), 48 h
The subject of assay [1] is HT29 colon.
The subject of assay [2] is K-562 leukemia.
Assay [3] has as its system SK-MEL-28 melanoma.
For assay [4], the system named is LOX IMVI melanoma.
For assay [5], the system named is SF-295 CNS.
For assay [6], the system named is NCI-H226 lung.
In assay [7] the test system is HOP-62 NSCLC.
The test system of assay [8] is HOP-92 NSCLC.
For assay [9], the system named is OVCAR-3 ovarian.

As for `C1C[OH+]CC[OH+]CCNCC[OH+]CC[OH+]CCN1.N.[Cl-].[Pt+4]`, the GI50 is 22.1 µM in [1]; 12.7 µM in assay [2]; 11.1 µM in assay [3]; 7.66 µM in assay [4]; 2.96 µM in [5]; 23 µM in assay [6]. For the same molecule, the GI50 in [7] is 6.11 µM; in [8], 16.1 µM; in [9], 4.12 µM. Also, the TGI is more than 100 µM in [1]; more than 100 µM in assay [2]; 35.7 µM in [3]; 28.4 µM in [4]; 19.7 µM in [5]; 77.4 µM in [6]. The TGI in assay [7] was 66.3 µM; in [8] it was 58.3 µM; in assay [9] it was 19.4 µM.

Turning to `N#C/C(=C\c1ccc(O)c(O)c1)C(N)=S`, the TGI in assay [1], in assay [2], in assay [3], in [4], in assay [5] and in [6] was more than 100 µM in each case. The TGI in [7], in [8] and in [9] was more than 100 µM in each case.

On to `COc1ccc2nc(-c3cccs3)cc(C(O)CN3CCSCC3)c2c1` (configuration not stated), for which the TGI in assay [1] was 74 µM; in assay [2], 51.5 µM; in assay [3], 77.4 µM; in assay [4], 34.4 µM; in assay [5], more than 100 µM; in assay [7] it was 65.8 µM. For the same molecule, the TGI in assay [8] is 62.1 µM; in [9], more than 100 µM.

For `C#CCOCn1cnc2c(Cl)ncnc21`, the TGI in assay [1], in [2], in assay [3], in assay [4], in assay [5] and in assay [6] was more than 100 µM in each case. Besides, the TGI in assay [7], in assay [8] and in [9] was more than 100 µM in each case.

`O=c1/c(=C/c2ccccc2F)sc2nc3ccccc3n12`: the TGI in assay [1], in assay [2], in assay [3], in assay [4], in assay [5] and in [6] was more than 100 µM in each case. The TGI in assay [8] and in [9] was more than 100 µM in each case.

In the case of `O=[N+]([O-])C1C2C=CC(C2)[C@H]1c1ccco1` (some centres not stated), the TGI in assay [1] is 9.22 µM; in assay [2], more than 100 µM; in assay [4], more than 100 µM; in assay [5] it was more than 100 µM; in assay [6] it was more than 100 µM; in assay [7], more than 100 µM. Moreover, the TGI in [8] was 18.4 µM; in [9], more than 100 µM.

Turning to `COC(C(=O)[O][Ge]([CH3])([CH3])[CH3])c1ccccc1` (configuration not stated), the GI50 in [1], in [3], in assay [4], in [5], in [7] and in assay [8] was more than 100 µM in each case. In addition, the GI50 in [9] is more than 100 µM. Further, the TGI in [1], in [3], in assay [4], in assay [5], in assay [7] and in assay [8] was more than 100 µM each time. The TGI in [9] is more than 100 µM.

`CC1C=C(OC(=O)c2ccccc2)C(=O)C(n2cc(F)c(=O)[nH]c2=O)O1` (configuration not stated): the TGI in assay [1], in assay [2], in assay [3], in assay [5], in assay [6] and in assay [7] was more than 100 µM each time. Moreover, the TGI in assay [8] and in [9] was more than 100 µM each time.

With `CCN(CC)c1ccc(C(=O)c2ccccc2C(=O)O)c(O)c1`, the TGI in assay [1], in assay [2], in assay [3], in [4], in [5] and in assay [7] was more than 100 µM in each case. The TGI in assay [8] and in [9] was more than 100 µM in each case.

With `CCCNC1=C(C(=O)OCC)C(=O)CO1`, the TGI in assay [1], in [2], in assay [3], in assay [4], in assay [5] and in assay [6] was more than 100 µM throughout. In addition, the TGI in assay [8] and in assay [9] was more than 100 µM throughout.

In the case of `COc1ccc(-c2n/c(=C\c3c(O)[nH]c4ccc(OC)cc34)cc3c2=Nc2ccccc2-3)cc1`, the GI50 was 1.9 µM in [3]; 19.9 µM in assay [4]; 3.9 µM in [5]; 2.36 µM in [7]; 13.8 µM in assay [8]. Moreover, the TGI in [3] amounted to 3.32 µM; in [4] it was 75.4 µM; in assay [5], 24.1 µM; in assay [7], 4.91 µM; in assay [8], 36.1 µM.

As to `COc1ccc(-c2nc3sc4c(c3c(=O)[nH]2)CCCCCC4)cc1`, the GI50 in [2] was 0.229 µM; in [3], 6.67 µM; in [4], 3.12 µM; in assay [5] it was 0.989 µM; in assay [6] it was 8.17 µM; in [7] it was 1.87 µM. Also, the GI50 in assay [8] is 1.4 µM; in assay [9], 1.91 µM. Also, the TGI in assay [2], in assay [3], in [4], in assay [5], in assay [6] and in [7] was more than 33.2 µM each time. Further, the TGI in assay [8] was 14.5 µM; in assay [9], more than 33.2 µM.

As for `O=C(N/C(=C\c1ccc2c(c1)OCO2)c1nc2ccccc2[nH]1)c1ccccc1`, the TGI in [2] was more than 79.6 µM; in assay [3], 52.1 µM; in assay [4], more than 100 µM; in assay [5] it was more than 100 µM; in assay [6] it was 77.1 µM; in assay [7] it was more than 73.4 µM. Also, the TGI in assay [8] was 58.7 µM; in assay [9] it was 81.9 µM.

For the molecule `CCCCC(CC)CN=C(N)NC(N)=NCCCCCCN=C(N)NC(N)=NCC(CC)CCCC` (configuration not stated), in assay [3], the GI50 is 2.26 µM and the TGI was 5.03 µM. Besides, in [6], the GI50 was 2.38 µM and the TGI is 7.48 µM.

Regarding `COc1ccc(OC)c(NC(=O)C2=C(C)NC(C)=C(C(=O)Nc3cc(OC)ccc3OC)C2c2ccccc2)c1`, the TGI in assay [1], in [2], in [3], in assay [4], in assay [5] and in assay [7] was more than 100 µM throughout. For the same molecule, the TGI in [8] and in assay [9] was more than 100 µM throughout.

`CC1=C(Oc2ccccc2)C(CCC(=O)O)c2c(O)cc(Cl)c(O)c21` (configuration not stated): the TGI in assay [2], in assay [3], in [4], in assay [5], in assay [7] and in [8] was more than 100 µM in each case. The same molecule yielded a TGI in [9] of more than 100 µM.

In the case of `CC1=Nc2ccccc2S/C1=C(/C)NNC(=O)C(N)=O`, the TGI in [1], in [2], in assay [3], in assay [4], in assay [5] and in [7] was more than 100 µM throughout. For the same molecule, the TGI in assay [8] and in assay [9] was more than 100 µM throughout.

On to `Cc1ccc(N=Cc2ccc3c(c2)OCO3)cc1C`, for which the TGI in assay [1], in assay [3], in assay [4], in assay [5], in assay [6] and in assay [8] was more than 100 µM in each case. Besides, in assay [9], the TGI was more than 100 µM.

`CC1=C(C)C(=O)c2c(cc3ccccn23)C1=O`: the TGI is 36.6 µM in assay [1]; more than 100 µM in assay [2]; 34 µM in assay [3]; 19.1 µM in assay [4]; 31.8 µM in [5]; 58.5 µM in [6]. The molecule further yielded a TGI in assay [9] of 29.2 µM.

On to `Cc1cc(N(CCC#N)CCC#N)ccc1N=Nc1cccc(C(=O)O)c1`, for which the TGI in [1], in assay [2], in [3], in assay [4], in [5] and in [6] was more than 100 µM in each case. The TGI in assay [7] and in [9] was more than 100 µM each time.

Consider `COc1cc(OC(C)=O)cc2c(OC(C)=O)ccc(OC(C)=O)c12`, for which the TGI in [1], in [2], in [3], in assay [4], in [5] and in assay [7] was more than 100 µM throughout. Further, the TGI was 46.7 µM in assay [8] and more than 100 µM in assay [9].

Turning to `COC(=O)C(=O)C1(CCC(C)=O)c2ccccc2-c2c(C)ccc(C)c21` (configuration not stated), the TGI in [1], in assay [2], in assay [3], in assay [4], in assay [5] and in assay [6] was more than 100 µM throughout. Moreover, the TGI in assay [7] and in [9] was more than 100 µM throughout.
